PubChem BioAssay AID248 (DTP/NCI, 2004)
Values joined by “and” are separate entries in the source; they are usually repeats but may differ in a detail not shown here. Equal entries are not always repeated. Inconclusive results and toxic doses are left out. Rule as the data show it: active = T/C of 150% or more; inactive = T/C below 125%.

Tested on: L1210 leukemia ip in BDF1 mice, survival T/C
Test: NCI In Vivo Anticancer Drug Screen. Data for tumor model L1210 Leukemia (intraperitoneal) in B6D2F1 (BDF1) mice
Details: endpoint: mean survival time, higher = longer survival
How it was run: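 Transplantable tumor model; survival measured in treated vs vehicle control mice. Value = treated/control.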

[1] = dose: 100.0 mg/kg/injection, schedule: Q01DX001 (ip), vehicle: saline
[2] = dose: 50.0 mg/kg/injection, schedule: Q01DX009 (ip), vehicle: saline with Tween-80
[3] = dose: 100.0 mg/kg/injection, schedule: Q01DX009 (ip), vehicle: saline with Tween-80
[4] = dose: 100.0 mg/kg/injection, schedule: Q04DX003 (ip), vehicle: saline with Tween-80
[5] = dose: 200.0 mg/kg/injection, schedule: Q04DX003 (ip), vehicle: saline with Tween-80
[6] = dose: 200.0 mg/kg/injection, schedule: Q01DX001 (ip), vehicle: saline
[7] = dose: 75.0 mg/kg/injection, schedule: Q01DX001 (ip), vehicle: saline
[8] = dose: 150.0 mg/kg/injection, schedule: Q01DX001 (ip), vehicle: saline
[9] = dose: 300.0 mg/kg/injection, schedule: Q01DX001 (ip), vehicle: saline
[10] = dose: 100.0 mg/kg/injection, schedule: Q01DX009 (ip), vehicle: Klucel (hydroxypropylcellulose) (HPC)
[11] = dose: 200.0 mg/kg/injection, schedule: Q01DX009 (ip), vehicle: Klucel (hydroxypropylcellulose) (HPC)
[12] = dose: 100.0 mg/kg/injection, schedule: Q04DX002 (ip), vehicle: saline with Tween-80
[13] = dose: 200.0 mg/kg/injection, schedule: Q04DX002 (ip), vehicle: saline with Tween-80
[14] = dose: 400.0 mg/kg/injection, schedule: Q04DX002 (ip), vehicle: saline with Tween-80

Measured: T/C

C=CCN(C(=O)C=C)C1CCCCC1
inactive: dose: 50.0 mg/kg/injection, schedule: Q01DX001 (ip), vehicle: saline 98 % of control | [1] 101 % of control

CC(C)(CBr)COS(=O)(=O)c1ccc(Br)cc1
inactive: [2] 89 % of control | [3] 91 % of control

NC(=O)C1C2C=CC(O2)C1C(N)=O (stereo not given)
inactive: dose: 100.0 mg/kg/injection, schedule: Q04DX002 (ip), vehicle: saline 89 % of control | dose: 200.0 mg/kg/injection, schedule: Q04DX002 (ip), vehicle: saline 92 % of control

CCCCNCCC(SS)c1ccc(Cl)cc1 (stereo not given)
inactive: [2] 106 % of control | [3] 92 % of control | [4] 88 % of control | [5] 93 % of control

CC(C)OCCCN
inactive: dose: 100.0 mg/kg/injection, schedule: Q01DX001 (ip), vehicle: carboxymethylcellulose (CMC) 97 % of control | dose: 200.0 mg/kg/injection, schedule: Q01DX001 (ip), vehicle: carboxymethylcellulose (CMC) 97 % of control

CCOC(=O)C1=NN(c2ccccc2)C(=O)C1N=Nc1ccc(S(=O)(=O)Nc2cc(C)nc(C)n2)cc1 (stereo not given)
inactive: [1] 101 % of control | [6] 102 % of control | dose: 400.0 mg/kg/injection, schedule: Q01DX001 (ip), vehicle: saline 96 % of control

CCCN(CCC)CC(O)c1ccc2cccc3c2c1CC3 (stereo not given)
inactive: [7] 104 % of control | [8] 98 % of control | [9] 95 % of control

Cc1ccc(C(=O)N/N=C/C(CC(O)C(O)CO)=N/NC(=O)c2ccc(C)cc2)cc1 (stereo not given)
inactive: dose: 100.0 mg/kg/injection, schedule: Q04DX003 (ip), vehicle: alcohol 93 % of control | dose: 200.0 mg/kg/injection, schedule: Q04DX003 (ip), vehicle: alcohol 96 % of control

CCOC(=O)C(Br)c1cccc(OC)c1 (stereo not given)
inactive: dose: 100.0 mg/kg/injection, schedule: Q01DX009 (ip), vehicle: saline sonified 107 % of control | dose: 100.0 mg/kg/injection, schedule: Q04DX003 (ip), vehicle: saline sonified 117 % of control | dose: 132.0 mg/kg/injection, schedule: Q04DX003 (ip), vehicle: saline sonified 104 % of control | dose: 200.0 mg/kg/injection, schedule: Q01DX009 (ip), vehicle: saline sonified 96 % of control | dose: 200.0 mg/kg/injection, schedule: Q04DX003 (ip), vehicle: saline sonified 96 % of control | dose: 300.0 mg/kg/injection, schedule: Q04DX003 (ip), vehicle: saline sonified 89 % of control | dose: 400.0 mg/kg/injection, schedule: Q01DX009 (ip), vehicle: saline sonified 98 % of control | dose: 400.0 mg/kg/injection, schedule: Q04DX003 (ip), vehicle: saline sonified 106 % of control

CCCCC1=NCCc2c1cc1c([nH]c3ccccc31)c2C
inactive: dose: 100.0 mg/kg/injection, schedule: Q04DX003 (ip), vehicle: saline 96 % of control | dose: 200.0 mg/kg/injection, schedule: Q04DX003 (ip), vehicle: saline 95 % of control

CC(C)CNCc1ccc([N+](=O)[O-])cc1
inactive: dose: 75.0 mg/kg/injection, schedule: Q01DX001 (ip), vehicle: carboxymethylcellulose (CMC) 97 % of control | dose: 150.0 mg/kg/injection, schedule: Q01DX001 (ip), vehicle: carboxymethylcellulose (CMC) 95 % of control

N#CCN1CCCCCC1
inactive: dose: 5.0 mg/kg/injection, schedule: Q01DX009 (ip), vehicle: Klucel (hydroxypropylcellulose) (HPC) 102 % of control | dose: 10.0 mg/kg/injection, schedule: Q01DX009 (ip), vehicle: Klucel (hydroxypropylcellulose) (HPC) 98 % of control | dose: 10.0 mg/kg/injection, schedule: Q04DX003 (ip), vehicle: Klucel (hydroxypropylcellulose) (HPC) 98 % of control | dose: 20.0 mg/kg/injection, schedule: Q04DX003 (ip), vehicle: Klucel (hydroxypropylcellulose) (HPC) 91 % of control

O=C(CBr)c1cccc2c1cc(Br)c1ccccc12
inactive: dose: 13.3 mg/kg/injection, schedule: Q01DX Z (ip), vehicle: methylcellulose (MC) 94 % of control | dose: 20.0 mg/kg/injection, schedule: Q01DX Z (ip), vehicle: methylcellulose (MC) 93 % of control | dose: 30.0 mg/kg/injection, schedule: Q01DX Z (ip), vehicle: methylcellulose (MC) 100 % of control

Cc1ccnc(NS(=O)(=O)c2ccc(N=NC3SC(=S)NC3=O)cc2)n1 (stereo not given)
inactive: [7] 100 % of control | [8] 101 % of control | [9] 98 % of control

CC1(C)N=C(N)N=C(N)N1c1cccc(/C=C/c2cccc([N+](=O)[O-])c2)c1
inactive: dose: 50.0 mg/kg/injection, schedule: Q01DX009 (ip), vehicle: Klucel (hydroxypropylcellulose) (HPC) 102 % of control | [10] 90 % of control | [11] 106 % of control

CCCCCCCCCCCC[N+](CC)(CC)CC(=O)O
inactive: dose: 12.5 mg/kg/injection, schedule: Q01DX009 (ip), vehicle: saline 88 % of control | dose: 25.0 mg/kg/injection, schedule: Q01DX009 (ip), vehicle: saline 97 % of control | dose: 50.0 mg/kg/injection, schedule: Q01DX009 (ip), vehicle: saline 104 % of control | dose: 50.0 mg/kg/injection, schedule: Q04DX003 (ip), vehicle: saline 111 % of control | [1] 93 % of control | [6] 98 % of control

CCCCCCCN=C(N)CSSCC(N)=NCCCCCCC
inactive: dose: 1.56 mg/kg/injection, schedule: Q04DX002 (ip), vehicle: saline with Tween-80 101 % of control | dose: 3.13 mg/kg/injection, schedule: Q04DX002 (ip), vehicle: saline with Tween-80 96 % of control | dose: 6.25 mg/kg/injection, schedule: Q04DX002 (ip), vehicle: saline with Tween-80 108 % of control and 115 % of control

O=C(OC1CCCCCCC1)C(F)(F)F
inactive: [10] 98 % of control | dose: 100.0 mg/kg/injection, schedule: Q04DX003 (ip), vehicle: Klucel (hydroxypropylcellulose) (HPC) 104 % of control | [11] 101 % of control | dose: 200.0 mg/kg/injection, schedule: Q04DX003 (ip), vehicle: Klucel (hydroxypropylcellulose) (HPC) 105 % of control | dose: 400.0 mg/kg/injection, schedule: Q01DX009 (ip), vehicle: Klucel (hydroxypropylcellulose) (HPC) 92 % of control | dose: 400.0 mg/kg/injection, schedule: Q04DX003 (ip), vehicle: Klucel (hydroxypropylcellulose) (HPC) 105 % of control

CNC(=O)NS(=O)(=O)c1ccc(Cl)cc1
inactive: [12] 97 % of control and 102 % of control | [4] 103 % of control and 105 % of control | [13] 98 % of control and 91 % of control | [5] 94 % of control and 101 % of control | [14] 97 % of control and 98 % of control | dose: 400.0 mg/kg/injection, schedule: Q04DX003 (ip), vehicle: saline with Tween-80 115 % of control and 90 % of control

CSc1nc2c(c(=O)[nH]1)C1C=C(C)CCC1C(C)(C)C2 (stereo not given)
inactive: dose: 100.0 mg/kg/injection, schedule: Q04DX002 (ip), vehicle: Klucel (hydroxypropylcellulose) (HPC) 98 % of control | dose: 200.0 mg/kg/injection, schedule: Q04DX002 (ip), vehicle: Klucel (hydroxypropylcellulose) (HPC) 96 % of control

CN(C)C(=O)N1CCCCC1
inactive: [12] 101 % of control | [13] 93 % of control | [14] 111 % of control

CN(N=O)C(=O)NCCSc1ncnc2nc[nH]c12
inactive: dose: 6.25 mg/kg/injection, schedule: Q01DX Z (ip), vehicle: carboxymethylcellulose (CMC) 103 % of control | dose: 12.5 mg/kg/injection, schedule: Q01DX Z (ip), vehicle: carboxymethylcellulose (CMC) 95 % of control | dose: 25.0 mg/kg/injection, schedule: Q01DX Z (ip), vehicle: carboxymethylcellulose (CMC) 107 % of control | dose: 50.0 mg/kg/injection, schedule: Q01DX Z (ip), vehicle: carboxymethylcellulose (CMC) 119 % of control
